Paper PMC5030134 (Nature chemical biology, 2016)

Target: T1, α-xylosidase (Xylsa) (Saccharolobus solfataricus, UniProt Q9P999)
T1 sequence (Q9P999 1-731): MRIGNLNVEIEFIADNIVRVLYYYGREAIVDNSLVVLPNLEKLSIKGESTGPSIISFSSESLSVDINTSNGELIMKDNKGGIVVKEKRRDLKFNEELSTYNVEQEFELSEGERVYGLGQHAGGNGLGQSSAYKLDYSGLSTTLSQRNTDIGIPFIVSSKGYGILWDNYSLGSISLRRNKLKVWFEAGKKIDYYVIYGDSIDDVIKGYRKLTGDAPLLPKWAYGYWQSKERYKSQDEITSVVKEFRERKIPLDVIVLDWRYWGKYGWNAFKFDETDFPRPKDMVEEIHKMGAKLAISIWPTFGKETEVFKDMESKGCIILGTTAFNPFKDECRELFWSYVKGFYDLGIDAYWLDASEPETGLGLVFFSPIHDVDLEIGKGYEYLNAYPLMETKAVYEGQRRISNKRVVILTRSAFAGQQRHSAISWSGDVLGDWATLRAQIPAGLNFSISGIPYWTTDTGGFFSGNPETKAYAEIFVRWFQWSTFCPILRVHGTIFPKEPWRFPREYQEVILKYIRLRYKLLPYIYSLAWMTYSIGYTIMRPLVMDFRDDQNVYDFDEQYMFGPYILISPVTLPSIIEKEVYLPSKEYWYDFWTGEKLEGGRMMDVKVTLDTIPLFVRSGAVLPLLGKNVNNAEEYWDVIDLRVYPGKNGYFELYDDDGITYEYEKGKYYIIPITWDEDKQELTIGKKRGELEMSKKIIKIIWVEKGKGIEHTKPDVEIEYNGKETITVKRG
Assay: HPLC and ESI-MS of digestion product
Format: biochemical
Settings: 150 mM sodium acetate pH 5.5, 65 °C, 3 h; second step, gives G3

## Cc1cc(=O)oc2cc(O[C@@H]3O[C@H](C(=O)O)[C@@H](O)[C@H](O[C@H]4OC[C@@H](O)[C@H](O[C@@H]5O[C@H](C(=O)O)[C@@H](O)[C@H](O[C@H]6OC[C@@H](O)[C@H](O)[C@H]6O)[C@H]5O)[C@H]4O)[C@H]3O)ccc12 [G4]
  HPLC and ESI-MS of digestion product: The product of the first step of G5 digestion was incubated with Xylsa
